Results reported in US9532938B2, “Esters of O-substituted hydroxy carboxylic acids and preparations thereof” (Eastman Chemical Company, priority 2010, dated 2017).

Target: T1, Novozym 435 (Candida antarctica lipase B immobilized on acrylic resin) (Moesziomyces antarcticus, UniProt P41365)
T1 construct: purchased
Test: Enzymatic hydrolysis of oleyl glycolyl retinoate with Novozym 435
Type: in vitro ADME
Settings: toluene / pH 7 phosphate buffer
Method: Oleyl glycolyl retinoate (50 mg; 0.082 mmol) was dissolved in 1 mL of toluene. pH 7 Phosphate buffer (1 mL) was added followed by Novozym 435 (50 mg). The mixture was stirred for 1 h at ambient temperature to afford 5% hydrolysis according to HPLC analysis.

T1 sequence (P41365 26-342): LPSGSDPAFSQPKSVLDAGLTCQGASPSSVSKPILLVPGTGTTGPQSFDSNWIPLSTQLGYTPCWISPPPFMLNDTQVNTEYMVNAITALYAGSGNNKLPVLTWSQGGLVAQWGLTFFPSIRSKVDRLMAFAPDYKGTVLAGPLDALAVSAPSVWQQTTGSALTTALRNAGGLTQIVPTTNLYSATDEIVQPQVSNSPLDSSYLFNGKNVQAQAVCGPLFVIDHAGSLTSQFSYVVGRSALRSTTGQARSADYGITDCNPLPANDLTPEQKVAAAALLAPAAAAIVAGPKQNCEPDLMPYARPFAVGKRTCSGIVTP

CCCCCCCC/C=C\CCCCCCCCOC(=O)COC(=O)/C=C(C)/C=C/C=C(C)/C=C/C1=C(C)CCCC1(C)C [Oleyl glycolyl retinoate, Oleyl Glycolyl Retinoate]
hydrolysis according to HPLC analysis (Novozym 435 (50 mg), stirred 1 h at ambient temperature): 5% | hydrolysis, control reaction without enzyme (no enzyme, ambient temperature): no hydrolysis
